Experimental data from patent US8022203B2, “Amino derivatives of beta-homoandrostanes and beta-heteroandrostanes” (Sigma-Tau Industrie Farmaceutiche Riunite S.p.A., priority 2006, dated 2011).
Where a name gives a salt, the structure may show the parent alone. Read-outs that look alike come from different tables or passages of the source.

Tests used:
[1] = tested on: spontaneous hypertensive rats of the Milan (MHS); assay: Systolic blood pressure fall in spontaneous hypertensive rats (MHS), tail-cuff; format: in vivo, rat; settings: five weeks, vs vehicle control
[2] = target: Na^+,K^+-ATPase (Canis lupus familiaris, UniProt P50997); assay: Dog kidney Na+,K+-ATPase inhibition (hydrolysis of 32P-ATP); format: biochemical
[3] = tested on: anesthetized guinea-pig; assay: Inotropic effect and lethal dose, slow intravenous infusion in anesthetized guinea-pig; settings: for % decrease from Emax after 20 min from the end of the infusion: 20 minutes after the end of the infusion; for Lethal dose/ED80: calculated in the died animals; for Maximum dose infused: in the survived animals; for Dead/treated / ED80 (dose increasing +dP/dTmax by 80%) / EDmax (dose inducing maximum positive inotropic effect) / Emax % increase in +dP/dTmax: slow intravenous infusion over 90 minutes; for safety ratio compared with reference cardiotonics / duration of the inotropic effect: in words; for duration of the inotropic effect: after stopping the infusion
[4] = tested on: hypertensive ouabain-sensitive rats (OS rats); assay: Systolic blood pressure fall in hypertensive ouabain-sensitive rats (OS rats), tail-cuff; format: in vivo, rat; settings: 10 μg/kg/day by mouth, four weeks
Protocol: The ability of these compounds to lower blood pressure was tested by using animal models with genetic arterial hypertension, in particular, spontaneous hypertensive rats of the Milan (MHS) (Bianchi G., Ferrari P., Barber B. The Milan Hypertensive strain. In Handbook of hypertension. Vol. 4: Experimental and genetic models of hypertension. Ed. W. de jong-Elsevier Science Publishers B.V., 1984:328-349) and rats made hypertensive by chronic infusion of ouabain, according to Ferrari P., et al. J. Pharm. Exp. Ther. 1998, 285, 83-94.
The procedure adopted to test the antihypertensive activity of the compounds on the above mentioned model was the following: systolic blood pressure (SBP) and heart rate (HR) were measured by an indirect tail-cuff method.
SBP and HR were measured weekly 6 hours after the treatment.

[5] = dog kidney enzyme, read-out: Na^+,K^+-ATPase Inhibition IC50
[6] = Na^+,K^+-ATPase Inhibition IC50

Row | SMILES | SBP - % ([1]; 10 μg/kg/os daily) [%] | SBP - mm Hg (decrease in systolic blood pressure) ([1]; 10 μg/kg/os daily) | % decrease from Emax after 20 min from the end of the infusion [3] [%] | Maximum dose infused [3] [µmol/kg] | Dead/treated [3] | ED80 (dose increasing +dP/dTmax by 80%) [3] [µmol/kg] | EDmax (dose inducing maximum positive inotropic effect) [3] [µmol/kg] | Emax % increase in +dP/dTmax [3] [%] | IC50 [2, 6] [µM] | other results
1 | C[C@]12CCC(=NOCCN)CC1C(=O)C[C@@H]1[C@@H]2CC[C@]2(C)C(=O)CC[C@@H]12.Cl (mixture of isomers) [Compd. 22b, (EZ) 3-(2-aminoethoxyimino)androstane-6,17-dione hydrochloride, reference compound] | 2.2 | 3.6 +/− 4.8 mm Hg | 100 | 32.1 | 7/8 | 1.82 | 5.74 | 182 |  | SBP - % ([1]; 100 μg/kg/os daily): 6.6%; SBP - mm Hg (decrease in systolic blood pressure) ([1]; 100 μg/kg/os daily): 10.7 +/− 7.5 mm Hg; IC50 [2, 5]: 0.33 µM; Lethal dose/ED80 [3]: 22.6
2 | CC12CCC3C(CC(=O)NC4CC(=NOCCN)CCC43C)C1CCC2=O (stereo not shown) [I-aa, (E,Z) 3-(2-Aminoethoxyimino)-6-aza-7a-homoandrostane-7,17-dione hydrochloride] | 7.1 | 12.3 +/− 1.1 mm Hg |  |  |  |  |  |  | 25 | SBP - % ([1]; 0.001 μg/kg/os daily): 0.0%; SBP - mm Hg (decrease in systolic blood pressure) ([1]; 0.001 μg/kg/os daily): 1.0 +/− 1.1 mm Hg; SBP - % ([1]; 0.01 μg/kg/os daily): 5.2%; SBP - mm Hg (decrease in systolic blood pressure) ([1]; 0.01 μg/kg/os daily): 8.8 +/− 1.6 mm Hg; SBP - % ([1]; 0.1 μg/kg/os daily): 6.5%; SBP - mm Hg (decrease in systolic blood pressure) ([1]; 0.1 μg/kg/os daily): 11.3 +/− 1.5 mm Hg; SBP - % ([1]; 1 μg/kg/os daily): 6.0%; SBP - mm Hg (decrease in systolic blood pressure) ([1]; 1 μg/kg/os daily): 10.0 +/− 2.1 mm Hg; SBP - % [4]: 10.0%; SBP - mm Hg (fall) [4]: 17.0 mm Hg; SBP mm Hg [4]: 153.0 mm Hg
3 | CNCCCON=C1CCC2(C)C(C1)NC(=O)CC1C3CCC(=O)C3(C)CCC12 (stereo not shown) [I-ac, (E,Z) 3-(3-N-Methylaminopropoxyimino)-6-aza-7a-homoandrostane-7,17-dione fumarate] | 4.2 | 7.2 +/− 0.7 mm Hg |  |  |  |  |  |  |  | IC50 [2, 5]: 19 µM
4 | CC12CCC3C(CCN(C=O)C4CC(=NOC5CCNC5)CCC34C)C1CCC2=O [I-ap, (E,Z) 3-[3-(R)-Pyrrolidinyl]oxyimino-6-aza-6-formyl-7a-homoandrostane-17-one hydrochloride] |  |  |  |  |  |  |  |  | 35 | SBP - % [4]: 9.4%; SBP - mm Hg (fall) [4]: 15.0 mm Hg; SBP mm Hg [4]: 154.0 mm Hg
5 | CC12CCC3C(NCCC4CC(=NOC5CCNC5)CCC43C)C1CCC2=O [I-ba, (E,Z) 3-[3-(R)-Pyrrolidinyl]oxyimino-7a-aza-7a-homoandrostane-17-one Difumarate] |  |  | 55 | 50.0 | 0/3 | 1.68 | 10.1 | 218 | 0.14 | safety ratio compared with reference cardiotonics [3]: higher safety ratios than those displayed by digitoxin and compd 22b; duration of the inotropic effect [3]: prolonged action
6 | CC12CCC3C(OC(=O)CC4CC(=NOC5CCNC5)CCC43C)C1CCC2=O [I-bk, (E,Z) 3-[3-(R)-Pyrrolidinyl]oxyimino-7a-oxa-7a-homoandrostane-7,17-dione hydrochloride] |  |  | 50 | 25.3 | 0/3 | 2.11 | 23.9 | 254 | 0.36 | safety ratio compared with reference cardiotonics [3]: higher safety ratios than those displayed by digitoxin and compd 22b; duration of the inotropic effect [3]: prolonged action
7 | C[C@H]1O[C@@H](O[C@H]2[C@@H](O)C[C@H](O[C@H]3[C@@H](O)C[C@H](O[C@H]4CC[C@@]5(C)[C@H](CC[C@@H]6[C@@H]5C[C@@H](O)[C@]5(C)[C@@H](C7=CC(=O)OC7)CC[C@]65O)C4)O[C@@H]3C)O[C@@H]2C)C[C@H](O)[C@@H]1O [digoxin, reference compound] |  |  | 100 | 1.16 | 10/10 | 0.29 | 0.65 | 158 |  | Lethal dose/ED80 [3]: 4.0
